# Tested on: CT26 colorectal cancer cells
# Assay: Tumor growth in BALB/c mice grafted with syngenic CT26 colorectal cancer cells
# Type: in vivo
# Settings: day 33; drinking water: compound 20 1.5 mg/ml (150 mg/kg daily), cimetidine or N-acetyl cysteine 0.75 mg/ml (75 mg/kg daily); vs vehicle
# Experimental: The effect of a complex of the invention and the effect of the components of the complex is tested on tumor growth in BALB/c mice grafted with syngenic CT26 colorectal cancer cells. The aim of the study is to compare the effect on tumor growth of the complex of the invention versus the effect of the two components of the complex individually. […] Compound 20, cimetidine and […] dissolved in drinking water. […] The solutions are available ad libitum in the entire study period. […] The doses of cimetidine and N-acetylcysteine are selected to correspond to the doses of each individual compound obtained by administration of […] of compound 20. In these studies, female BALB/c mice with an age of 6 weeks are used. Ten mice are included per group. The mice are caged in standard cages at a temperature of 21° C.-23° C. controlled via the ambient ventilation system in the laboratory. Light cycle is 12-hour dark and 12-hour light (lights on 06.00). Diet is Altromin 1314 special formulation, Produced by Altromin Denmark, Chr. Pedersen A/S, 4100 Ringsted, Denmark. Water is acidified with citric acid. Diet and water is administered ad libitum. The mice are randomised to test groups of ten mice. After one week of acclimatisation each mouse is injected subcutaneously with appr. […] Tumor diameters are measured in two dimensions using a digital slide gauge.
row,SMILES,tumor growth inhibited
1,CN/C(=N/CCSCc1nc[nH]c1C)NC#N [cimetidine],8%
2,CC(=O)N[C@@H](CS)C(=O)O [N-acetyl cysteine],19%

# From patent US20030158118A1, “Combination of cimetidine and cysteine derivatives for treating cancer” (priority 2001, published 2003)
